# Reference: ChEMBL document CHEMBL1134503, “Synthesis, antifolate, and antitumor activities of classical and nonclassical 2-amino-4-oxo-5-substituted-pyrrolo[2,3-d]pyrimidines” (J Med Chem, 2001)
# What was measured:
# [1] = molecular target: Dihydrofolate reductase; T. gondii vs rat (Toxoplasma gondii) (UniProt Q920D2+Q07422); assay: Ratio of binding to rat liver and Toxoplasma gondii dihydrofolate reductase
# CCRF-CEM [2] = assay: Growth inhibition of parental CCRF-CEM cells.; type: functional, cell-based; settings: Homo sapiens
# CCRF-CEM [3] = assay: Growth inhibition of […], defined mechanisms of MTX resistance during continuous (0-120 h) exposure; type: functional, cell-based; settings: Homo sapiens
# CCRF-CEM [4] = assay: Growth inhibition of CCRF-CEM cells resistant to MTX; type: functional, cell-based; settings: Homo sapiens
# Dihydrofolate reductase [5] = molecular target: T1, Dihydrofolate reductase (Pneumocystis carinii, UniProt P16184); assay: Inhibitory activity against Pneumocystis carinii dihydrofolate reductase
# T1 sequence (P16184 whole entry): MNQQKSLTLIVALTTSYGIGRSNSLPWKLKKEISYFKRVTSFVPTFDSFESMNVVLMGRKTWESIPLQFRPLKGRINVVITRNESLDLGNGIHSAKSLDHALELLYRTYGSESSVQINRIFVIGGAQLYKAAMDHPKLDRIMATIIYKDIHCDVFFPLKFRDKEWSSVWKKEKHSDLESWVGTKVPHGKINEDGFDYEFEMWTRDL
# Dihydrofolate reductase [6] = molecular target: T2, Dihydrofolate reductase (Rattus norvegicus, UniProt Q920D2); assay: Inhibition of rat liver dihydrofolate reductase
# T2 sequence (Q920D2 whole entry): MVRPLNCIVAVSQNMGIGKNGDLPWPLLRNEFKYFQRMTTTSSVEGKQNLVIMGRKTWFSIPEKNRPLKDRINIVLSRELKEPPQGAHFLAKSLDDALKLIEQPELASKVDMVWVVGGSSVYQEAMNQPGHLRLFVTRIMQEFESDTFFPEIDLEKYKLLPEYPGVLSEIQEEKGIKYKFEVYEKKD
# FaDu [7] = assay: Growth inhibition of FaDu human head and neck squamous cell carcinoma cell lines.; type: functional, cell-based
# CCRF-CEM [8] = assay: Growth inhibition of DHFR-overexpressing cells, defined mechanisms of MTX resistance during continuous (0-120 h) exposure; type: functional, cell-based; settings: Homo sapiens
# A253 cell line = assay: Growth inhibition of A253 cell lines.; type: functional, cell-based; settings: Homo sapiens
# [9] = molecular target: T3, Bifunctional dihydrofolate reductase-thymidylate synthase (Toxoplasma gondii, UniProt Q07422); assay: Inhibitory activity against Toxoplasma gondii dihydrofolate reductase
# T3 sequence (Q07422 whole entry): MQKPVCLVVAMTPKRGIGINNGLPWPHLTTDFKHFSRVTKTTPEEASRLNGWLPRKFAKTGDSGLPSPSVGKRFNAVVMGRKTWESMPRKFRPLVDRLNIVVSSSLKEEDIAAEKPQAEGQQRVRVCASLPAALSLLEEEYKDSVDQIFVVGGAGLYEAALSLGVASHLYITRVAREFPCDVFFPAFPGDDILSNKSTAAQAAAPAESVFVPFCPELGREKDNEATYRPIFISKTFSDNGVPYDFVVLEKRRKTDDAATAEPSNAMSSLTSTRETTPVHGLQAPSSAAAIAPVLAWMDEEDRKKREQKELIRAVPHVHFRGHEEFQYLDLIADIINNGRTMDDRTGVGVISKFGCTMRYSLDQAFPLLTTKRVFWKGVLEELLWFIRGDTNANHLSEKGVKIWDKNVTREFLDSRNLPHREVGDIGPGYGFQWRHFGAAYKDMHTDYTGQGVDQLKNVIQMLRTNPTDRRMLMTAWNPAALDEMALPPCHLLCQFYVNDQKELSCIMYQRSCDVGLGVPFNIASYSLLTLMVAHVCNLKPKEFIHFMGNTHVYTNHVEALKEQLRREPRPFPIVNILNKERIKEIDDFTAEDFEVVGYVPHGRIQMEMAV
# Thymidylate synthase [10] = molecular target: Thymidylate synthase (Homo sapiens, UniProt P04818); assay: Inhibitory activity against human thymidylate synthase
# Thymidylate synthase (Homo sapiens, UniProt P04818), sequence (P04818 whole entry): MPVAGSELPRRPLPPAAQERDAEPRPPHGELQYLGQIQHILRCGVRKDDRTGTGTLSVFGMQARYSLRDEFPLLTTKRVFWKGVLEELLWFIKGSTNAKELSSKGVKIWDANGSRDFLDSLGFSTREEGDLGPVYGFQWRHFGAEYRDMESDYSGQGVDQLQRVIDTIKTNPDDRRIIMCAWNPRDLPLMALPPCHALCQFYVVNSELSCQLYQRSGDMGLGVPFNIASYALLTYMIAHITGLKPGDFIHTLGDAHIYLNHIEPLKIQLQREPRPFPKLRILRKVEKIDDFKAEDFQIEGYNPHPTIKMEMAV
# FaDu [11] = assay: Relative growth inhibition of FaDu cells at 9 uM drug concentration and in presence of thymidine and hypoxanthine.; type: functional, Homo sapiens
# FaDu [12] = assay: Relative growth inhibition of FaDu cells in absence of metabolite at 9 uM concentration.; type: functional, Homo sapiens
# FaDu [13] = assay: Relative growth inhibition of FaDu cells at 9 uM drug concentration and in presence of 10 uM Leucovorin.; type: functional, Homo sapiens
# FaDu [14] = assay: Relative growth inhibition of FaDu cells at 9 uM drug concentration and in presence of 40 uM Thymidine.; type: functional, Homo sapiens
# FaDu [15] = assay: Relative growth inhibition of FaDu cells at 9 uM drug concentration and in presence of 50 uM Hypoxanthine.; type: functional, Homo sapiens
# Thymidylate synthase [16] = molecular target: Thymidylate synthase (Escherichia coli, UniProt C3SWJ7); assay: Inhibitory activity against Escherichia coli thymidylate synthase
# Thymidylate synthase (Escherichia coli, UniProt C3SWJ7), sequence (C3SWJ7 whole entry): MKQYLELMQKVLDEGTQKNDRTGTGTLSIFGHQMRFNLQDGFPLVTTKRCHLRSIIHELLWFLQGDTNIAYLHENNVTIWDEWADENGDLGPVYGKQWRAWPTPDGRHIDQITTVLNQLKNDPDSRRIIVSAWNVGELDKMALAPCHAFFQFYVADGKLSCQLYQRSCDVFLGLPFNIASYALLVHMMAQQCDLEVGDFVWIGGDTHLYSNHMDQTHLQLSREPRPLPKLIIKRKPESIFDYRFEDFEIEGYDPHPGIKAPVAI
# Dihydrofolate reductase [17] = molecular target: T4, Dihydrofolate reductase (Homo sapiens, UniProt P00374)
# T4 sequence (P00374 whole entry): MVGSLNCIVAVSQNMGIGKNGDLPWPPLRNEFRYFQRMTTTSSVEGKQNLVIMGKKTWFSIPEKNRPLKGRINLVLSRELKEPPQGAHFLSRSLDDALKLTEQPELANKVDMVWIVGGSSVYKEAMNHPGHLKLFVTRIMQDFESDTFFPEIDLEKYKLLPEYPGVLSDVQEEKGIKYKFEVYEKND
# Description: Inhibitory activity against human dihydrofolate reductase
IC50 (Dihydrofolate reductase [5]) [µM],IC50 (Dihydrofolate reductase [6]) [µM],Compound,Ratio [1],IC50 [9] [µM],further results
–,–,COc1ccc(OC)c(N(C)Cc2c[nH]c3nc(N)nc(O)c23)c1,> 6,–,–
> 87,87,COc1cc(OC)cc(N(C)Cc2c[nH]c3nc(N)nc(O)c23)c1,> 21,4.2,–
–,–,Nc1nc(O)c2c(CNc3ccc(Cl)cc3Cl)c[nH]c2n1,> 7,–,–
> 26,26,Nc1nc2[nH]cc(CNc3cccc(Cl)c3)c2c(=O)[nH]1,–,–,–
> 56,56,COc1ccc(OC)c(N(C)Cc2c[nH]c3nc(N)[nH]c(=O)c23)c1,–,10.3,–
> 20,20,COc1cc(NCc2c[nH]c3nc(N)[nH]c(=O)c23)cc(OC)c1,–,–,–
–,–,Nc1nc(O)c2c(CNc3cc(Cl)cc(Cl)c3)c[nH]c2n1,> 15.4,–,–
> 22,22,COc1cc(NCc2c[nH]c3nc(N)nc(O)c23)cc(OC)c1OC,> 2.4,9.3,–
> 15,15,Nc1nc2[nH]cc(CNc3ccc(Cl)cc3Cl)c2c(=O)[nH]1,–,–,–
–,–,Nc1nc2[nH]cc(CCc3ccc(C(=O)N[C@@H](CCC(=O)O)C(=O)O)cc3)c2c(=O)[nH]1 [PEMETREXED],–,–,IC50 (Thymidylate synthase [10]): 5.7 µM
–,63,Nc1nc2[nH]cc(CNc3cc(Cl)cc(Cl)c3)c2c(=O)[nH]1,–,4.1,–
–,–,COc1cc(NCc2c[nH]c3nc(N)nc(O)c23)cc(OC)c1,> 8,–,–
–,–,Nc1nc(O)c2c(CNc3cccc(Cl)c3)c[nH]c2n1,> 7,–,–
> 45,45,COc1cc(N(C)Cc2c[nH]c3nc(N)[nH]c(=O)c23)cc(OC)c1OC,–,37,–
–,–,Nc1nc(O)c2c(CNc3ccc(C(=O)N[C@@H](CCC(=O)O)C(=O)O)cc3)c[nH]c2n1,–,0.8,EC50 (CCRF-CEM [2]): 0.08 µM; EC50 (CCRF-CEM [3]): 0.31 µM; EC50 (CCRF-CEM [4]): 0.12 µM; Relative growth (FaDu [11]): 79; Relative growth (FaDu [12]): 5; EC50 (FaDu [7]): 0.8 µM; Relative growth (FaDu [13]): 64; Relative growth (FaDu [14]): 74; Relative growth (FaDu [15]): 5; IC50 (Thymidylate synthase [16]): > 120 µM; IC50 (Thymidylate synthase [10]): 46 µM; EC50 (CCRF-CEM [8]): 0.2 µM; EC50 (A253 cell line): 1 µM; IC50 (Dihydrofolate reductase [17]): 10 µM
> 25,25,Nc1nc(O)c2c(CNc3cc(Cl)ccc3Cl)c[nH]c2n1,> 38,0.66,–
> 16,16,COc1ccc(NCc2c[nH]c3nc(N)nc(O)c23)c(OC)c1,> 2.3,–,–
–,–,COc1cc(N(C)Cc2c[nH]c3nc(N)nc(O)c23)cc(OC)c1OC,> 2,–,–
–,–,CN(Cc1cnc2nc(N)nc(N)c2n1)c1ccc(C(=O)N[C@@H](CCC(=O)O)C(=O)O)cc1 [METHOTREXATE],–,–,EC50 (A253 cell line): 0.019 µM

Compound,IC50 (Dihydrofolate reductase [5]) [µM],IC50 (Dihydrofolate reductase [6]) [µM],Ratio [1],IC50 [9] [µM],further results
COc1ccc(OC)c(NCc2c[nH]c3nc(N)nc(O)c23)c1,> 47,47,> 21,–,EC50 (CCRF-CEM [2]): 0.23 µM; EC50 (CCRF-CEM [3]): 1.53 µM; EC50 (CCRF-CEM [4]): 0.46 µM; EC50 (FaDu [7]): > 10 µM; EC50 (CCRF-CEM [8]): 0.42 µM; EC50 (A253 cell line): > 10 µM
